The values that follow come from patent US20150258139A1, “METHODS FOR TREATMENT OF CANCER USING LIPOPLATIN” (REGULON, INC., priority 2012, published 2015).

Where “and” joins values, the source holds several entries; their conditions need not be identical. Equal entries are not always repeated. Where two headings read alike, the source gives them in different places.

Series [1] deals with F98 glioma tumor. Type of series: in vivo. Conditions: drug alone.
Series [2] concerns F98 glioma tumor. The series can be described thus: Mean survival time of F98 glioma bearing Fischer rats, platinum drugs combined with Gamma Knife irradiation. Type of series: in vivo.
Series [3] has as its system F98 glioma tumor.
Series [4] has as its system metastatic colorectal cancer. Conditions: cited from earlier work.
For the next series, the system named is pancreatic cancer. Conditions: gemcitabine alone; cited from earlier work.
The test system of series [5] is Nonmetastatic Castrate-Resistant Prostate Cancer. Conditions: monotherapy (Ogita et al); cited from earlier work.
[6] abbreviates: IA + BBBD, 24 h after administration, ± SD.
The mark [7] stands for this setting: IA + BBBD, 24 h after administration, ± SD, listed as carboplatin.
Setting [8] is: IA, 24 h after administration, ± SD.
The mark [9] stands for this setting: IA, 24 h after administration, ± SD, listed as carboplatin.
[10] abbreviates: IV, 24 h after administration, ± SD.

`N.N.O=C([O-])C1(C(=O)[O-])CCC1.[Pt+2]` [Carboplatin]: the mean survival time was 33.7 ± 2.0 days in the series with F98 glioma tumor [1] (IA + opening BBB); 31.0 ± 3.6 days with F98 glioma tumor [1] (IA, sham group 22.5±0.6 days); “did not significantly increase” with F98 glioma tumor [1] (IV, sham group 22.6±1.2 days); 38.0 ± 6.4 days with F98 glioma tumor [2] (IA + opening of BBB + radiation 15 Gy, sham group+IR 34.5±2.2 days); 44.7 ± 6.1 days with F98 glioma tumor [2] (IA + radiation 15 Gy, sham group+IR 34.0±6.1 days). For the same compound, the “increase of mean survival time compared to the sham IR group” value in the series with F98 glioma tumor [2] (IA + radiation 15 Gy) came out at 10.7 days. Besides, in the series on F98 glioma tumor [3] (IA + BBBD vs IA), the “increase of accumulation in cytoplasm of tumor cells by opening of the BBB” value came out at 4.7 fold. Further, the “increase of accumulation in nucleus of tumor cells by opening of the BBB” value in the series on F98 glioma tumor [3] (IA + BBBD vs IA) came to 18 fold. Further, the “Platinum in brain tumor” value with F98 glioma tumor [3] (setting [6]) is on record as 987 ± 621 ng of platin/g tissue; in the series with F98 glioma tumor [3] (setting [8]), 469 ± 241 ng of platin/g tissue; in the series with F98 glioma tumor [3] (setting [10]) it was 145 ± 27 ng of platin/g tissue. In addition, the “Platinum in cytoplasm of tumor cells” value with F98 glioma tumor [3] (setting [6]) is reported as 398 ± 191 ng of platin/g tissue; in the series with F98 glioma tumor [3] (setting [7]) it was 398±191 ng of platin/g tissue; in the series on F98 glioma tumor [3] (setting [8]), 84 ± 61 ng of platin/g tissue; with F98 glioma tumor [3] (setting [9]) it was 84±61 ng of platin/g tissue; with F98 glioma tumor [3] (setting [10]), 13 ± 4 ng of platin/g tissue. For the same compound, the “Platinum in healthy contra lateral brain” value is given as 242 ± 59 ng of platin/g tissue with F98 glioma tumor [3] (setting [6]), 70 ± 48 ng of platin/g tissue in the series with F98 glioma tumor [3] (setting [8]) and 27 ± 2 ng of platin/g tissue in the series on F98 glioma tumor [3] (setting [10]). In addition, the “Platinum in nucleus of tumor cells” value with F98 glioma tumor [3] (setting [6]) is 160 ± 85 ng of platin/g tissue; in the series with F98 glioma tumor [3] (setting [7]), 160±85 ng of platin/g tissue; with F98 glioma tumor [3] (setting [8]) it was 9 ± 7 ng of platin/g tissue; in the series on F98 glioma tumor [3] (setting [9]), 9±7 ng of platin/g tissue; in the series with F98 glioma tumor [3] (setting [10]), 0.5 ± 0.8 ng of platin/g tissue. Also, in the series on F98 glioma tumor [3] (IA vs IV, tumor vs contra lateral brain), the “effect of the IA route on tumor uptake and specificity” value is “improved both the tumor uptake and specificity”. Also, the “uptake in the nucleus of cancer cells” value with F98 glioma tumor [3] (IV route) is recorded as ~4 ng platinum/g tissue.
In turn, `N.N.[Cl][Pt][Cl]` [Cisplatin] yielded a mean survival time with F98 glioma tumor [1] (IA, sham group 22.5±0.6 days) of 13.3 ± 0.1 days. In the series on F98 glioma tumor [1] (IV, sham group 22.6±1.2 days), this compound registered a mean survival time of 18.1 ± 0.9 days. Also, in the series on F98 glioma tumor [3] (rat, in vivo, iv), the “Platinum in cytoplasm of tumor cells” value is listed as 251 ± 48 ng of platin/g tissue, the “Platinum in nucleus of tumor cells” value is reported as 67 ± 14 ng of platin/g tissue and the “uptake in the nucleus of cancer cells” value amounted to 67±14 ng platinum/g tissue.
As to `O=C1[O][Pt]2([NH][C@@H]3CCCC[C@H]3[NH]2)[O]C1=O` [Oxaliplatin], the mean survival time in the series on F98 glioma tumor [1] (IA, sham group 22.5±0.6 days) was 22.0 ± 4.7 days; in the series on F98 glioma tumor [1] (IV, sham group 22.6±1.2 days), “did not significantly increase”. Further, in the series with F98 glioma tumor [3] (IV route), the “uptake in the nucleus of cancer cells” value was found to be 78±8 ng platinum/g tissue. Also, the “Platinum in cytoplasm of tumor cells” value with F98 glioma tumor [3] (setting [10]) is 292 ± 128 ng of platin/g tissue. Besides, the “Platinum in nucleus of tumor cells” value with F98 glioma tumor [3] (setting [10]) was 78 ± 8 ng of platin/g tissue. Moreover, the “objective responses, % of patients” value in series [4] (2 small trials of first-line monotherapy (Wiseman et al)) is 20% and 24%; in series [4] (monotherapy as second-line option (Wiseman et al)), “about 10%”. Besides, the response rate in series [4] (first line monotherapy, metastatic colorectal cancer patients) is 24%. Besides, the overall response rate in series [4] (monotherapy, second line, colorectal cancer, Japanese study (Boku et al)) is given as 9%.
As for `Nc1ccn([C@@H]2O[C@H](CO)[C@@H](O)C2(F)F)c(=O)n1` [gemcitabine], the one-year survival in the series with pancreatic cancer was 17%.
“Avastin®: humanized monoclonal antibody that binds to and inhibits human vascular endothelial growth factor (VEGF)”: the efficacy entry in series [5] is reported as “marginal efficacy”.
